{
  "source": "patent US20050101595A1",
  "about": "“N-containing cycloalkyl-substituted amino-thiazole derivatives and pharmaceutical compositions for inhibiting cell proliferation and methods for their use” (PFIZER INC., priority 2003, published 2005)",
  "key": {"[1]": {"target": "CDK2/Cyclin A (Homo sapiens, UniProt P24941)", "test": "Inhibition of CDK2/Cyclin A Retinoblastoma Kinase Activity", "type": "biochemical", "details": "for Ki: apparent Ki, CDK2/proteolyzed cyclin A, Rb fragment substrate, 25 μM ATP", "procedure,_shortened": "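CDK2 (10 or 19 nM), insect-cell expressed, gel-filtration purified with truncated cyclin A; Rb fragment substrate; 25 μM ATP; 10 mM HEPES pH 7.4, 10 mM MgCl2; 30° C, 60 or 75 min; EDTA stop; phosphocellulose/nitrocellulose capture, phosphorimager. % inhibition vs DMSO control, no-enzyme background subtracted.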"}, "[2]": {"test_system": "HCT-116 cell line", "test": "Inhibition of cell growth, tetrazolium salt (MTT) assay", "type": "cell-based", "details": "for IC50: Homo sapiens, HCT-116, 120 h, MTT, three to five days, read-out: HCT-116 IC50; for HCT-116 % Inhibition at 0.25 μM: 0.25 μM compound", "procedure,_shortened": "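Growth inhibition is scored relative to cells receiving only 0.5% (v/v) DMSO. Plated cells rest 4 h, then take compound for three to five days at 37° C; MTT reduction to formazan is read at 540 nm.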"}, "[3]": {"target": "human CDK4 and genetically truncated (1-264) cyclin D3 (Homo sapiens, UniProt P11802)", "sequence (P11802 whole entry, the tested form may be a part)": "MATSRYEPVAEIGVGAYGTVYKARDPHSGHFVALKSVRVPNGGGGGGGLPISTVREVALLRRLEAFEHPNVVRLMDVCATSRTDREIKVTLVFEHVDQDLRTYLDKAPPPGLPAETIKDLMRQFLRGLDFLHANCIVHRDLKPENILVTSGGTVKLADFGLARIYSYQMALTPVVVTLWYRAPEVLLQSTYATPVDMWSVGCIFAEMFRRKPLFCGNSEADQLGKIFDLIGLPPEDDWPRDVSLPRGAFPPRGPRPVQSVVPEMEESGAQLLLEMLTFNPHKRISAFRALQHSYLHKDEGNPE", "sequence (P30281 1-264 partner)": "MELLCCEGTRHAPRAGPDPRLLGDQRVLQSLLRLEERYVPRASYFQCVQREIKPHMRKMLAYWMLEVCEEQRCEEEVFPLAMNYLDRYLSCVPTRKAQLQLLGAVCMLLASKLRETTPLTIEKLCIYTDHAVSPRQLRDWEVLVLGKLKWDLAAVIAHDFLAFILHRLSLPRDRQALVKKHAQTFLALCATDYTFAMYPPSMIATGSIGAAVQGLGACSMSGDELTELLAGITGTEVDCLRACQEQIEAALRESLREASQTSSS", "test": "Inhibition of CDK4/Cyclin D Retinoblastoma Kinase Activity", "type": "biochemical", "details": "for Ki: apparent Ki, CDK4/truncated cyclin D3, Rb fragment substrate, 25 μM ATP", "procedure,_shortened": "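The enzyme complex (5 nM), expressed in co-infected insect cells, was incubated with recombinant Rb fragment, 25 μM radiolabelled ATP and 2% DMSO at 30 °C. Reactions were stopped with EDTA after 20 minutes, or 60 minutes for tight-binding inhibitors. Apparent Ki values came from competitive inhibition fits.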"}, "[4]": {"details": "0.1 μM compound, HCT-116, Table 3"}, "[5]": {"details": "0.1 μM compound, HCT-116, Table 4"}},
  "note": "Counter-ions that a name gives are not always drawn. Like-named read-outs stand apart in the source and are kept apart here.",
  "data": [
    {"smiles": "Nc1nc(NC2CCN(S(=O)(=O)CCCN3CC=CCC3)CC2)sc1C(=O)c1c(F)cccc1F", "note": "[Example K11, 1-(4-Amino-2-{1-[3-(3,6-dihydro-2H-pyridin-1-yl)propane-1-sulfonyl]-piperidin-4-ylamino}-thiazol-5-yl)-1-(2,6-difluoro-phenyl)-methanone.]", "values": [
      {"measurement": "Ki", "setting": "[1]", "result": 2.9, "unit": "nM"},
      {"measurement": "IC50", "setting": "[2]; first HCT-116 column (c4)", "result": 130, "unit": "nM"},
      {"measurement": "IC50", "setting": "[2]; second HCT-116 column (c5)", "result": 1300, "unit": "nM"},
      {"measurement": "Ki", "setting": "[3]", "result": 1.8, "unit": "nM"}
    ]},
    {"smiles": "Nc1nc(NC2CCN(C(=O)c3ccc(Cl)nc3)CC2)sc1C(=O)c1c(F)cccc1F", "note": "[Example R20]", "values": [
      {"measurement": "CDK2 % Inhibition at 0.03 μM", "setting": "[1]; at 0.03 μM", "result": 59, "unit": "%"},
      {"measurement": "HCT-116 % Inhibition at 0.1 μM", "setting": "[2]; HCT-116 cells, at 0.1 μM", "result": 0, "unit": "%"},
      {"measurement": "HCT-116 5 Inhibition at 0.25 μM", "setting": "[2]; HCT-116 cells, at 0.25 μM", "result": 42},
      {"measurement": "CDK4 % Inhibition at 0.03 μM", "setting": "[3]; at 0.03 μM", "result": 85, "unit": "%"}
    ]},
    {"smiles": "Cc1noc(C)c1S(=O)(=O)N1CCC(Nc2nc(N)c(C(=O)c3c(F)cccc3F)s2)CC1", "note": "[Example F1]", "values": [
      {"measurement": "Ki", "setting": "[1]", "result": 12, "unit": "nM"},
      {"measurement": "IC50", "setting": "[2]; first HCT-116 column (c4)", "result": 1400, "unit": "nM"},
      {"measurement": "IC50", "setting": "[2]; second HCT-116 column (c5)", "result": 4500, "unit": "nM"},
      {"measurement": "Ki", "setting": "[3]", "result": 14, "unit": "nM"}
    ]},
    {"smiles": "Nc1nc(NC2CCN(S(=O)(=O)CCCn3ccnc3)CC2)sc1C(=O)c1c(F)cccc1F", "note": "[Example K2]", "values": [
      {"measurement": "Ki", "setting": "[1]", "result": 6.3, "unit": "nM"},
      {"measurement": "IC50", "setting": "[2]; first HCT-116 column (c4)", "result": 2300, "unit": "nM"},
      {"measurement": "IC50", "setting": "[2]; second HCT-116 column (c5)", "result": "> 5000", "unit": "nM"},
      {"measurement": "Ki", "setting": "[3]", "result": 4.7, "unit": "nM"}
    ]},
    {"smiles": "CN1CCN(S(=O)(=O)N2CCC(Nc3nc(N)c(C(=O)c4c(F)cccc4F)s3)CC2)CC1", "note": "[Example E3, {4-Amino-2-[1-(4-methyl-piperazine-1-sulfonyl)-piperidin-4-ylamino]-thiazol-5-yl}-(2,6-difluoro-phenyl)-methanone]", "values": [
      {"measurement": "Ki", "setting": "[1]", "result": 12, "unit": "nM"},
      {"measurement": "IC50", "setting": "[2]; first HCT-116 column (c4)", "result": 330, "unit": "nM"},
      {"measurement": "IC50", "setting": "[2]; second HCT-116 column (c5)", "result": 780, "unit": "nM"},
      {"measurement": "Ki", "setting": "[3]", "result": 5.4, "unit": "nM"}
    ]},
    {"smiles": "Nc1nc(NC2CCN(S(=O)(=O)c3ccc([N+](=O)[O-])cc3)CC2)sc1C(=O)c1c(F)cccc1F", "note": "[Example P19]", "values": [
      {"measurement": "CDK2 % Inhibition at 0.03 μM", "setting": "[1]; 0.03 μM compound, Table 3", "result": 63, "unit": "%"},
      {"measurement": "HCT-116 % Inhibition at 0.1 μM", "setting": "[2]; [4]", "result": 19, "unit": "%"},
      {"measurement": "HCT-116 % Inhibition at 0.25 μM", "setting": "[2]; HCT-116, Table 3", "result": 30, "unit": "%"},
      {"measurement": "CDK4 % Inhibition at 0.03 μM", "setting": "[3]; 0.03 μM compound, Table 3", "result": 73, "unit": "%"}
    ]},
    {"smiles": "Nc1nc(NC2CCN(S(=O)(=O)c3ccc(CN4CCOCC4)cc3)CC2)sc1C(=O)c1c(F)cccc1F", "note": "[Example J8, 1-{4-Amino-2-[1-(4-morpholin4-ylmethyl-benzenzsulfonyl)-piperidin-4-ylamino]-thiazol-5-yl}-1-(2,6-difluoro-phenyl)-methanone Hydrochloride Salt]", "values": [
      {"measurement": "Ki", "setting": "[1]", "result": 1.3, "unit": "nM"},
      {"measurement": "IC50", "setting": "[2]; first HCT-116 column (c4)", "result": 98, "unit": "nM"},
      {"measurement": "IC50", "setting": "[2]; second HCT-116 column (c5)", "result": 400, "unit": "nM"},
      {"measurement": "Ki", "setting": "[3]", "result": 1.2, "unit": "nM"}
    ]},
    {"smiles": "CN(C)CCOc1nc(S(=O)(=O)N2CCC(Nc3nc(N)c(C(=O)c4c(F)cccc4F)s3)CC2)cn1C", "note": "[Example H25, (4-Amino-2-{1-[2-(2-dimethylamino-ethoxy)-1-methyl-1H-imidazole-4-sulfonyl]-piperidin-4-ylamino}-thiazol-5-yl)-(2,6-difluoro-phenyl)-methanone Hydrochloride Salt]", "values": [
      {"measurement": "Ki", "setting": "[1]", "result": 20, "unit": "nM"},
      {"measurement": "IC50", "setting": "[2]; first HCT-116 column (c4)", "result": "> 5000", "unit": "nM"},
      {"measurement": "IC50", "setting": "[2]; second HCT-116 column (c5)", "result": "> 5000", "unit": "nM"},
      {"measurement": "Ki", "setting": "[3]", "result": 83, "unit": "nM"}
    ]},
    {"smiles": "CN(CCS(=O)(=O)N1CCC(Nc2nc(N)c(C(=O)c3c(F)cccc3F)s2)CC1)c1ccccc1", "note": "[Example K37, (4-Amino-2-{1-[2-(methyl-phenyl-amino)-ethanesulfonyl]-piperidin-4-ylamino}-thiazol-5-yl)-(2,6-difluoro-phenyl)-methanone Trifluoroacetic Acid Salt.]", "values": [
      {"measurement": "Ki", "setting": "[1]", "result": 7, "unit": "nM"},
      {"measurement": "IC50", "setting": "[2]; first HCT-116 column (c4)", "result": 310, "unit": "nM"},
      {"measurement": "IC50", "setting": "[2]; second HCT-116 column (c5)", "result": 1300, "unit": "nM"},
      {"measurement": "Ki", "setting": "[3]", "result": 3.2, "unit": "nM"}
    ]},
    {"smiles": "COc1cccc(CC(=O)N2CCC(Nc3nc(N)c(C(=O)c4c(F)cccc4F)s3)CC2)c1", "note": "[Example Q79]", "values": [
      {"measurement": "CDK2 % Inhibition at 0.03 μM", "setting": "[1]; 0.03 μM compound, Table 4", "result": 51, "unit": "%"},
      {"measurement": "HCT-116 % Inhibition at 0.1 μM", "setting": "[2]; [5]", "result": 5, "unit": "%"},
      {"measurement": "HCT-116 % Inhibition at 0.25 μM", "setting": "[2]; HCT-116, Table 4", "result": 33, "unit": "%"},
      {"measurement": "CDK4 % Inhibition at 0.03 μM", "setting": "[3]; 0.03 μM compound, Table 4", "result": 59, "unit": "%"}
    ]},
    {"smiles": "Nc1nc(NC2CN(C(c3ccccc3)c3ccccc3)C2)sc1C(=O)c1c(F)cccc1F", "note": "[Example A14, [4-Amino-2-(1-benzhydryl-azetidin-3-ylamino)-thiazol-5-yl]-(2,6-difluoro-phenyl)-methanone]", "values": [
      {"measurement": "Ki", "setting": "[1]", "result": "> 2000", "unit": "nM"},
      {"measurement": "IC50", "setting": "[2]; first HCT-116 column (c4)", "result": "> 5000", "unit": "nM"},
      {"measurement": "IC50", "setting": "[2]; second HCT-116 column (c5)", "result": "> 5000", "unit": "nM"},
      {"measurement": "Ki", "setting": "[3]", "result": "> 2000", "unit": "nM"}
    ]},
    {"smiles": "Nc1nc(NC2CCN(C(=O)/C=C/c3ccccc3)CC2)sc1C(=O)c1c(F)cccc1F", "note": "[Example Q45]", "values": [
      {"measurement": "CDK2 % Inhibition at 0.03 μM", "setting": "[1]; 0.03 μM compound, Table 4", "result": 21, "unit": "%"},
      {"measurement": "HCT-116 % Inhibition at 0.1 μM", "setting": "[2]; [5]", "result": 0, "unit": "%"},
      {"measurement": "HCT-116 % Inhibition at 0.25 μM", "setting": "[2]; HCT-116, Table 4", "result": 31, "unit": "%"},
      {"measurement": "CDK4 % Inhibition at 0.03 μM", "setting": "[3]; 0.03 μM compound, Table 4", "result": 47, "unit": "%"}
    ]},
    {"smiles": "Nc1nc(NC2CCN(S(=O)(=O)CCCN3CCOCC3)CC2)sc1C(=O)c1c(F)cccc1F", "note": "[Example K12, 1-(4-Amino-2-{1-[3-(morpholin-4-yl)propane-1-sulfonyl]-piperidin-4-ylamino}-thiazol-5-yl)-1-(2,6-difluoro-phenyl)-methanone.]", "values": [
      {"measurement": "Ki", "setting": "[1]", "result": 6.7, "unit": "nM"},
      {"measurement": "IC50", "setting": "[2]; first HCT-116 column (c4)", "result": 600, "unit": "nM"},
      {"measurement": "IC50", "setting": "[2]; second HCT-116 column (c5)", "result": 5000, "unit": "nM"},
      {"measurement": "Ki", "setting": "[3]", "result": 4.7, "unit": "nM"}
    ]},
    {"smiles": "[N-]=[N+]=C1C=C(S(=O)(=O)N2CCC(Nc3nc(N)c(C(=O)c4c(F)cccc4F)s3)CC2)c2ccccc2C1=O", "note": "[Example P83]", "values": [
      {"measurement": "CDK2 % Inhibition at 0.03 μM", "setting": "[1]; 0.03 μM compound, Table 3", "result": "−11", "unit": "%"},
      {"measurement": "HCT-116 % Inhibition at 0.1 μM", "setting": "[2]; [4]", "result": 10, "unit": "%"},
      {"measurement": "HCT-116 % Inhibition at 0.25 μM", "setting": "[2]; HCT-116, Table 3", "result": 26, "unit": "%"},
      {"measurement": "CDK4 % Inhibition at 0.03 μM", "setting": "[3]; 0.03 μM compound, Table 3", "result": 25, "unit": "%"}
    ]}
  ]
}
